Source: patent publication US5498623A, “4(5) substituted imidazoles and their preparation and use” (Orion-yhtyma Oy, priority 1991, dated 1996)
Like-named read-outs stand apart in the source and are kept apart here.

Experiments:
α2-adrenoceptor [1] = molecular target: T1, α2-adrenoceptor (Mus musculus, UniProt Q01338); assay: α2-Antagonism in vitro, isolated electrically stimulated mouse vas deferens (vs detomidine)
T1 construct: isolated, electrically stimulated mouse vas deferens preparation; from tissue; host or cells: isolated mouse vas deferens
T1 sequence (Q01338 1-465): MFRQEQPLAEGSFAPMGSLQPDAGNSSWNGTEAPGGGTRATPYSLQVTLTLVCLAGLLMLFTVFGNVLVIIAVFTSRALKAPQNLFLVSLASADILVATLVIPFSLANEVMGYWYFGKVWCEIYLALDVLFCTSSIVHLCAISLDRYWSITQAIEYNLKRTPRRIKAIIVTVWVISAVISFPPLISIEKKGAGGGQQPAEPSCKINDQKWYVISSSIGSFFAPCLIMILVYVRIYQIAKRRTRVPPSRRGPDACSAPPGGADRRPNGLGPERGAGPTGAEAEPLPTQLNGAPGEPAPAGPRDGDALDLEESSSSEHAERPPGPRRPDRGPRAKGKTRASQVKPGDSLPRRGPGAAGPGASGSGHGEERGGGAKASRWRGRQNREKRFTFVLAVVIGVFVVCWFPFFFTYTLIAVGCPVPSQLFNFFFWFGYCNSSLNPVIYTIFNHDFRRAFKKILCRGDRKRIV
Experimental: 1. α2 -Antagonism in vitro
α2 -Antagonism was determined by means of isolated, electrically stimulated mouse vas deferens preparation (Marshall et al., Br. J. Pharmac. 62, 147, 151, 1978). In this model, α2 -agonist (detomidine) blocks electrically stimulated muscular contractions and the effect of the α2 -antagonist is seen by administering it prior to the agonist and by determining its pA2 value.

α1-adrenoceptor [2] = molecular target: T2, α1-adrenoceptor (Rattus norvegicus, UniProt P43140); settings: for EC50 / α1-Agonism (pD2) rat vas deferens: negative logarithm of molar concentration producing 50 percent of maximal contraction; for EC50: read-out: α1-Agonism (pD2) rat vas deferens (converted)
T2 sequence (P43140 1-466): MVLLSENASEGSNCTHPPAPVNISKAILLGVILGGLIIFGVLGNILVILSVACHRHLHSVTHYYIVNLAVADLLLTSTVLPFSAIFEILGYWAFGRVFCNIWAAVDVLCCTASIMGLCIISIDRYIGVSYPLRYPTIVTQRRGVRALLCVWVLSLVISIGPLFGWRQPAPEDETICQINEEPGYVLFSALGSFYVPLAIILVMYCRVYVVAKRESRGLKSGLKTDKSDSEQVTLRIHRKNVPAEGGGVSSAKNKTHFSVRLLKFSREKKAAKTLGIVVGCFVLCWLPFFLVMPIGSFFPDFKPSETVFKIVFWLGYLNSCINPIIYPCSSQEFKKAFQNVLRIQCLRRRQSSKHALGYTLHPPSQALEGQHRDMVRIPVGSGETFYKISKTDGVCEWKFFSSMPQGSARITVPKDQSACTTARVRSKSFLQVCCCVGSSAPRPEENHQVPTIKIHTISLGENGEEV
Experimental: (§1) To obtain information also on the selectivity of the antagonist between α1 - and α2 -receptors, its ability to inhibit or stimulate α1 -receptors was determined by means of isolated epididymal portion of rat vas deferens. The reference substances were now phenylephrine, a known α1 -agonist, and prazosin, a known α1 -antagonist. To determine α1 -antagonism, muscular contraction was induced by phenylephrine and the pA2 value of the studied compound was determined as above α1 -Agonist effect is presented as the pD2 value (negative logarithm of the molar concentration of the compound producing 50 percent of maximal contraction).

α1-adrenoceptor [3] = assay: α1-Antagonism in vitro, isolated epididymal portion of rat vas deferens (vs phenylephrine); settings: contraction induced by phenylephrine
Experimental: as §1

α2-adrenoceptor [4] = assay: α2-Adrenoceptor antagonism in vivo, reversal of detomidine-induced mydriasis in anaesthetized rat; settings: dose producing 50 per cent reversal of detomidine-induced mydriasis
Experimental: 2. α2 -Adrenoceptor antagonism in vivo
It is known that in the rat α2 -agonists induce dilatation of the pupil (mydriasis) which effect is transmitted via postsynaptic α2 -receptors in the central nervous system. In anaesthetized rat, a standard dose of an α2 -agonist, detomidine, was administered intravenously. Thereafter increasing doses of the studied antagonists were injected intravenously and the reversal of detomidine-induced mydriasis was followed. The ED50 value of the antagonist, i.e. the dose producing a 50 per cent reversal, was determined.

α2-adrenoceptor [5] = assay: Duration of the α2-blocking action (antagonism of detomidine mydriasis after oral pretreatment); assay type: in vivo; settings: rat, equipotent doses, pretreatment 1, 2, 4, 7 or 16 hours, time for antagonist effect to fall by half
Experimental: The duration of the α2 -blocking action of the compounds was determined as follows: the antagonists were administered orally at equipotent doses to groups of 4 rats 1, 2, 4, 7 or 16 hours before induction of anaesthesia and challenge with cumulative i.v. dosing of detomidine. By calculating the percentage antagonism of the mydriatic effect of 0.1 mg/kg detomidine for each pretreatment group, a time-effect relationship was established. This in turn permitted the measurement of the time taken for the antagonist effect to fall by half.

rats = assay: Effects on learning and memory in linear arm maze task; assay type: in vivo, rat; settings: for learning and memory effect (overall): adult rats; for time to solve the task / number of errors (reentries into arms already visited): rats; for time to solve the task: effect on learning and speed to make correct choices; for number of errors (reentries into arms already visited): effect on working memory
Experimental: The linear arm maze is a modified version of radial arm maze, which is a generally used memory test in rats. […] Water was also used as control. All injections were made in a volume 1 ml/kg.
Apparatus: The maze was a wooden platform in a shape of two crosses one after another. The stem (starting arm) was 90 cm long and 12 cm wide. The five other arms (goal arms) were 50 cm long and 12 cm wide. Four goal arms were situated perpendicularly to the stem and to the fifth arm which located opposite to the stem. On either side of the stem and the arms were edges, 2.0 cm high. At the end of each goal arm a hole 1 cm deep and 3 cm in diameter, served as a food cup. The starting platform (20×20 cm) was separated from the stem by a quillotine door. The door was 12 cm high and 7 cm wide. The door frame was 20 cm high and 20 cm wide. The maze was elevated 31 cm above the floor, in a low-lighted test room which contained other objects as well as the test apparatus. The holes at the end of the goal arms were baited with three pellets of prize food (45 mg pellets Bio Serve Inc.).
Procedures: Two days prior to training, animals were placed on a food deprivation schedule that reduces their body weights to 90% of initial weights. During these days the rats were habituated to handling (three times/day), test room and prize food. On the second day they were also habituated to the unbaited maze: three to five animals from the same cage at the same time for ten minutes. On the third day the goal arms were baited, and the teaching trial, one rat at a time, was carried out. The rat received drug or distilled water and […] later it was placed in the starting platform. After ten seconds the door was opened and the rat was allowed to explore the maze until all the baits were found. The time to find all the baits and reentries made into already visited arms was recorded. This time every rate was allowed to stay in the maze at least for five minutes. On the next day the proper memory and learning testing began and continued for four days (testing days 1 to 4). Rats were given eight trials, two per day. Inter trial interval was 50 minutes. Drugs or distilled water were administered 30 minutes before the first trial of the day. Otherwise testing trials were identical to the teaching trial. All the observations were done blind so that test solutions were in coded flasks.
Statistical analysis: The results were expressed as mean time/trial/day (seconds) and mean errors/trial/day. The analysis of variance for the repeated measurements (ANOVA) was used to compare the drugs' and the testing days' effects on learning and memory.

α2-adrenoceptor [6] = molecular target: T3, α2-adrenoceptor (Rattus norvegicus, UniProt P22909); assay: Relative peroral bioavailability (α2-blocking potency after peroral vs parenteral administration); assay type: in vivo; settings: equipotent doses 0.3 to 3 mg/kg, 1 hour before anaesthesia
T3 construct: transmitted via postsynaptic α2 -receptors in the central nervous system; from tissue; host or cells: whole anaesthetized rat (in vivo), central nervous system
T3 sequence (P22909 1-465): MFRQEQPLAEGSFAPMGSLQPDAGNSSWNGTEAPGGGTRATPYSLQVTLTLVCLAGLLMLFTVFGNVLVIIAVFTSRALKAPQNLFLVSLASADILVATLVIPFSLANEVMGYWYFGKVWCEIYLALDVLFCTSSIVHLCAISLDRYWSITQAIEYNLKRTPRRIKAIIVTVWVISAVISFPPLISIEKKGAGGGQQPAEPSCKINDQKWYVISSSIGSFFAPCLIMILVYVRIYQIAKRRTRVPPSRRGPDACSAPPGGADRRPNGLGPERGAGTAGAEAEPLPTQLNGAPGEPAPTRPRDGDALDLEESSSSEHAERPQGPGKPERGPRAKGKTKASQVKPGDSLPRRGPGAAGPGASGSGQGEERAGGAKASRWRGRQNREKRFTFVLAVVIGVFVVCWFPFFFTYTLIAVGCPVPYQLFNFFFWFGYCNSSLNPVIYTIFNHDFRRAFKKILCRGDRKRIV
Experimental: The relative bioavailability of the antagonists when administered orally was evaluated by comparing the potency of their α2 -blocking effect after peroral and parenteral administration. The antagonists were administered at equipotent doses (0.3 to 3 mg/kg) to groups of rats 1 hour before induction of anaesthesia and challenge with detomidine as described above in relation to the measurement of duration of action.

[7] = Acute toxicity (LD50) using mice; settings: mouse, in vivo, po
Experimental: For example, the LD50 for 7-(4-(5-fluoro-2,3-dihydro-1H-inden-2-yl)-1H-imidazole) is 100 mg/kg (p.o.).

[8] = antagonist given prior to detomidine, mouse vas deferens, read-out: α2-Antagonism (pA2 vs detomidine) mouse vas deferens (converted)

SMILES: CCC1(c2c[nH]cn2)Cc2cc(F)c(F)cc2C1 [Compound 3, 4-(2-Ethyl-5,6-difluoro-2,3-dihydro-1H-inden-2-yl)-1H-imidazole]
- Kb (α2-adrenoceptor [1]; [8]): 63.1 nM

SMILES: Fc1cccc2c1CC(c1c[nH]cn1)C2 (stereo not drawn) [Compound 6, 4-(4-Fluoro-2,3-dihydro-1H-inden-2-yl)-1H-imidazole]
- Kb (α2-adrenoceptor [1]): 7.94 nM
- EC50 (α1-adrenoceptor [2]): 316 nM
- α1-Agonism, type of agonist (full/partial) (α1-adrenoceptor [2]; rat vas deferens): full agonist

SMILES: CCC1(c2cnc[nH]2)Cc2ccccc2C1 [atipamezole, reference compound]
- Kb (α2-adrenoceptor [1]): 7.94 nM
- α1-Antagonism (pA2 vs phenylephrine) rat vas deferens (α1-adrenoceptor [3]): 5.0
- α1-Agonism (pD2) rat vas deferens (α1-adrenoceptor [2]): no effect
- α2-Antagonism ED50 (iv) (α2-adrenoceptor [4]): 0.01 mg/kg
- t1/2 of α2-antagonism (α2-adrenoceptor [5]): 2 h
- learning and memory effect (overall) (rats; 0.3 mg/kg s.c. (hydrochloride)): learning and memory enhancing effects
- time to solve the task (rats; 0.3 mg/kg s.c. (hydrochloride)): decreased the time to solve the task
- number of errors (reentries into arms already visited) (rats; 0.3 mg/kg s.c. (hydrochloride)): decreased number of errors

SMILES: CCC1(c2c[nH]cn2)Cc2ccc(F)cc2C1=O (stereo not drawn) [Compound 4, 2-Ethyl-6-fluoro-2,3-dihydro-2-(1H-imidazol-4-yl)-1H-inden-1-one]
- Kb (α2-adrenoceptor [1]; [8]): 1260 nM
- α1-Antagonism (pA2 vs phenylephrine) rat vas deferens (α1-adrenoceptor [3]): no effect
- α1-Agonism (pD2) rat vas deferens (α1-adrenoceptor [2]): no effect
- α2-Antagonism ED50 (iv) (α2-adrenoceptor [4]): 0.3 mg/kg
- t1/2 of α2-antagonism (α2-adrenoceptor [5]): 6 h
- Peroral bioavailability (α2-adrenoceptor [6]): 89
- learning and memory effect (overall) (rats; 3 mg/kg p.o. (hydrochloride)): learning and memory enhancing effects
- time to solve the task (rats; 3 mg/kg p.o. (hydrochloride)): decreased the time to solve the task
- number of errors (reentries into arms already visited) (rats; 3 mg/kg p.o. (hydrochloride)): decreased number of errors

SMILES: CCC1(c2c[nH]cn2)Cc2ccc(F)cc2C1 (stereo not drawn) [Compound 1, 4-(2-Ethyl-5-fluoro-2,3-dihydro-1H-inden-2-yl)-1H-imidazole]
- Kb (α2-adrenoceptor [1]; [8]): 6.31 nM
- α1-Antagonism (pA2 vs phenylephrine) rat vas deferens (α1-adrenoceptor [3]): no effect
- α1-Agonism (pD2) rat vas deferens (α1-adrenoceptor [2]): no effect
- α2-Antagonism ED50 (iv) (α2-adrenoceptor [4]): 0.015 mg/kg
- t1/2 of α2-antagonism (α2-adrenoceptor [5]): 3 h
- Peroral bioavailability (α2-adrenoceptor [6]): 81

SMILES: CCC1(c2c[nH]cn2)Cc2ccc(O)cc2C1 (stereo not drawn) [Compound 8, 2-Ethyl-2-(1H-imidazol-4-yl)-5-indanol]
- Kb (α2-adrenoceptor [1]; [8]): 63.1 nM

SMILES: CC1(c2c[nH]cn2)Cc2ccc(F)cc2C1 (stereo not drawn) [Compound 2, 4-(5-Fluoro-2,3-dihydro-2-methyl-1H-inden-2-yl)-1H-imidazole]
- Kb (α2-adrenoceptor [1]; [8]): 50.1 nM

SMILES: Fc1ccc2c(c1)CC(c1c[nH]cn1)C2 (stereo not drawn) [Compound 7, 4-(5-Fluoro-2,3-dihydro-1H-inden-2-yl)-1H-imidazole]
- Kb (α2-adrenoceptor [1]): 10 nM
- EC50 (α1-adrenoceptor [2]): 3160 nM
- α2-Antagonism ED50 (iv) (α2-adrenoceptor [4]): 0.01 mg/kg
- t1/2 of α2-antagonism (α2-adrenoceptor [5]): 7 h
- Peroral bioavailability (α2-adrenoceptor [6]): 80
- learning and memory effect (overall) (rats; 0.3 mg/kg s.c. (hydrochloride)): learning and memory enhancing effects
- time to solve the task (rats; 0.3 mg/kg s.c. (hydrochloride)): decreased the time to solve the task
- number of errors (reentries into arms already visited) (rats; 0.3 mg/kg s.c. (hydrochloride)): decreased number of errors
- LD50 [7]: 100 mg/kg

SMILES: CCC1(c2c[nH]cn2)Cc2ccc(Cl)cc2C1=O (stereo not drawn) [Compound 5, 6-Chloro-2-ethyl-2,3-dihydro-2-(1H-imidazol-4-yl)-1H-inden-1-one]
- Kb (α2-adrenoceptor [1]; [8]): 251 nM
